# Measurements from patent publication US20030040485A1, “alpha/beta-adrenoceptors blockers and angiotensin converting enzyme inhibitors derived from hydroxyphenyl carboxylic acid and alcohol” (priority 2001, published 2003).
# Assays:
# [1] = tested on: blood pressure of normotensive male Wistar rats; experiment: Heart rate and blood pressure in living rat (i.v., anaesthetized); type: in vivo; conditions: maximal decrease, 2 mg/kg i.v.
# From the text: Normotensive Male Wistar rats (NTRs), weighing 200˜300 g were abdominal anaesthetized with pentobarbital sodium. Tracheal was cannulated to maintain normal respiration. Polyethylene tube was inserted into the left femoral vein to facilitate drug administration. A 3-way stopcock was used, with one end comnected to a syringe for drug injection, while the other end was connected to the syringe filled with physiological saline. The latter was used to prevent residual drugs in the polyethylene tube after injection, which would affect experimental accuracy.
# The right femoral artery was also inserted with polyethylene, and a 3-way stopcock was used tool, where one end was connected to heparin solution to prevent embolism. The other end was comnected to a Disposable Diaphragm Dome, TA1019, and linked to a pressure transducer (Model P10EZ; Spectramed, Oxnard, Calif., USA). Through an amplifier, a recorder recorded the overall and average arterial pressure; heart rate to evaluate the effect of drug on blood pressure and heart rate. Different concentrations 0.1, 1.0, 2.0, 3.0 mg/kg of test compounds were given to the rats via femoral vein and the differences in the heart rate and blood pressure were compared. Table 2 shown maximal decrease of blood pressure affect of compounds after given 2.0 mg/kg test compounds to the rats.
# [2] = target: β1-adrenoceptor (left atrium) (Rattus norvegicus, UniProt P18090); experiment: β1-adrenoceptor antagonism, left atrium, pA2; conditions: Schild plot, mean ± SEM of six to eight experiments
# [3] = tested on: β2-adrenoceptor (trachea); experiment: β2-adrenoceptor antagonism, trachea, pA2; set-up: species or system rat; conditions: Schild plot, mean ± SEM of six to eight experiments
# Protocol: (§1) When the spontaneously beating rate of right atria reached a certain stability, cumulative administration of L-isoproterenol from 1×10^−10˜3×10^−10 M caused the heart rate to increase continuously, and a cumulative dose-response curve was obtained. Then the L-isoproterenol was thoroughly washed off with Kreb's solution to recover the right atria's heart rate stability. After the equilibrum was reached again for at least 60 minutes, different concentrations (10^−7, 10^−6, 10^−5 M) of compounds were added. 30 minutes later, cumulative administration of L-isoproterenol from 1×10^−10˜3×10^−10 M were carried out again, and another new cumulative dose-response curve was obtained. Administration of L-isoproterenol started from concentration 1×10^−10 M, and the concentration was raised 0.5 log each time for a total of six times. Cumulative administration interval was when the previous concentration reached its greatest effect, the next concentration would be immediately given. […] In other groups of rats, after separate administration of test compounds, their pA2 values were obtained.
# pA2=−Log KB Log(DRADJ−1)=n log[B]−LogKB
# [4] = tested on: α1-adrenoceptor (aorta); experiment: α-adrenoceptor antagonism, isolated rat aorta, pA2 vs norepinephrine; set-up: species or system Wistar rat; conditions: Schild plot, mean ± SEM of six to eight experiments
# Protocol: Vascular α-adrenoceptor blocking activity was evaluated in the Wistar rat aorta preparation. Isolated rat aorta preparations were mounted in organ bath and suspended in Krebs solution at 37° C. […] or 75 mM KCl was added to the bath medium after a control concentration-response curve to norepinephrine had been obtained. The tissue was exposed to test compounds for 30 min before rechallenging with norepinephrine. Inhibitions were expressed as percentages of the maximum contraction obtained by the challenge of the tissues with norepinephrine. The 70 mM NaCl on 75 mM KCl solution may to replace with equimolar KCl, if necessary.
# The methods published by Huang Y C. et. al. in J Cardiovasc Pharmacol.34, pp.10-20 (1999) and Drug Devel Res. 47, 77-89 (1999). Through referenced and modified method to evaluate, test compounds whether have α1-adrenergic and sertoninergic effect.
# Isolated Wistar rat aorta preparations were mounted in organ bath and suspended in Krebs solution (NaCl, 118 mM, KCl, 4.8 mM; CaCl,2.5 mM; MgSO4,1.2 mM; K2PO4,1.2 Mm; […] Mm; glucose, 11 mM) at 37° C. under 1 g resting tension.
# Upon balancing for 60 minutes, 10^−10-10^−4 M norepinephrine is administered directly from low concentration to high using 0.5 log unit to gradually increase until the maximum reaction is reached, and this act as the control unit. Then different concentrations of the synthetic testing compounds, 10^−7 M, 10^−6 M, or 10^−5M, are used, and upon 30 minutes of reaction, norepinephrine is used again to complete the cumulative dose. The EC50 value of blocking […] may be obtained from observation of the suppressing effects caused by different concentrations of the synthetic testing compound.
# The equation is as follows: […]
# [5] = tested on: β1-adrenoceptor (right atrium); experiment: β1-adrenoceptor antagonism, spontaneously beating right atrium, pA2 vs L-isoproterenol; conditions: for β1/β2 Ratio: antilogarithm of difference between mean pA2 of right atrium and trachea; for β1 pA2 value, Right atrium: Schild plot, mean ± SEM of six to eight experiments
# Protocol: The spontaneously-beating right atria was clipped on both end by heart shaped clips, where one end was fixed at the bottom of 10 ml of tissue bath made of physiological saline solution, and temperature maintained at 37° C. The other end of the atria was connected to a force transducer, and isometric contractions and beating rate of the right atria were recorded by COULBOURN AT-High-Speed VideoFigure. After the samples were given 250 mg of contractions and reach equilibrium the following experiments were carried out:
# as §1
# pA2=−Log KB Log(DRADJ−1)=n log[B]−LogKB
# [6] = target: T1, angiotensin converting enzyme (ACE) (Rattus norvegicus, UniProt P47820); experiment: ACE inhibitory activity in rat serum (Hycor kit, [3H]-hippuryl-glycyl-glycine); type: biochemical; conditions: mean of three samples
# T1 construct: from tissue; host or cells: rat serum
# T1 sequence (P47820 36-1238 limits assumed): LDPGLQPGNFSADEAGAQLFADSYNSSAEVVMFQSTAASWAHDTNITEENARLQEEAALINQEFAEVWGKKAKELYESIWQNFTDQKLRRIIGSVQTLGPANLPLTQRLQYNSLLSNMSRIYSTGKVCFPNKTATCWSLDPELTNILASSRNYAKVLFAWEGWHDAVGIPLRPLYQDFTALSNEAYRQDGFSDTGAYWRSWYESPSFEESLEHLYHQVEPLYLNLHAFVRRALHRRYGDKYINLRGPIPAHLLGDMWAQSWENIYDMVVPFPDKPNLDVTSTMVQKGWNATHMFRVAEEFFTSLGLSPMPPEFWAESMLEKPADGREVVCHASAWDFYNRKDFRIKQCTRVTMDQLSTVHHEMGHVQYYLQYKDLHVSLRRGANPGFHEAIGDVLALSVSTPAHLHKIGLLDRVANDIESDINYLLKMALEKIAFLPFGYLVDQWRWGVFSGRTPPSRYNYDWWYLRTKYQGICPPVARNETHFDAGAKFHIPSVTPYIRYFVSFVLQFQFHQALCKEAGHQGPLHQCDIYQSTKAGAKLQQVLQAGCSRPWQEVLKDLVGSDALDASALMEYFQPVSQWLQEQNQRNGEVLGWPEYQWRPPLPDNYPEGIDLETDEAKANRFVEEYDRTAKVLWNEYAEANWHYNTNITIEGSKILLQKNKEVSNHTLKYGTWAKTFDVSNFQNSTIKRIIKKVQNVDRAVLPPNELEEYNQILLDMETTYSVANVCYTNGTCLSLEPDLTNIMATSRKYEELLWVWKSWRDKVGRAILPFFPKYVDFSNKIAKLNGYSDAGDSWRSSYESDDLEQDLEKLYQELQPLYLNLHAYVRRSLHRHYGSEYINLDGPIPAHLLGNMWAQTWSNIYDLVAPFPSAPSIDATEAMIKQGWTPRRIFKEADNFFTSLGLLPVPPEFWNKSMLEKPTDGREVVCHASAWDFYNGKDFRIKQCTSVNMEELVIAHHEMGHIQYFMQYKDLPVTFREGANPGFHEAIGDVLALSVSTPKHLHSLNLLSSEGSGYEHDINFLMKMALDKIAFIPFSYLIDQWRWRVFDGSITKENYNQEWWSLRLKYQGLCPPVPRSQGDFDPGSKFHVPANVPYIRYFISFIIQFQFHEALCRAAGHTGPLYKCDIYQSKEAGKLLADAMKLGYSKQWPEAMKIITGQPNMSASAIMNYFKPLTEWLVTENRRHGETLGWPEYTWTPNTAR
# Protocol: ACE value in serum was determined by Hycor kit, rat serum were cultured in 37° C. of [^3H]-hippuryl-glycyl-glycine for 60 minutes. While [^3H]-hippuryl-glycyl-glycine contains three peptide. [^3H] hippuric acid was obtained when extracted of culture solution with ethyl acetate, the content be determined by spectrophotometer. The content in serum sample was as the control group after it was added with 10^−8M, 10^−7M, 10^−6M compounds, then dissolved in PBS.
# [7] = target: T2, angiotensin converting enzyme (ACE) (Rattus norvegicus, UniProt P47820); experiment: ACE activity value on tissue (rat lung membrane, Hip-His-Leu, fluorometric); type: biochemical; conditions: mean of three samples
# T2 construct: Centrifuged 250-300 mg lung tissue; from tissue; host or cells: rat lung membrane fraction
# T2 sequence (P47820 36-1313): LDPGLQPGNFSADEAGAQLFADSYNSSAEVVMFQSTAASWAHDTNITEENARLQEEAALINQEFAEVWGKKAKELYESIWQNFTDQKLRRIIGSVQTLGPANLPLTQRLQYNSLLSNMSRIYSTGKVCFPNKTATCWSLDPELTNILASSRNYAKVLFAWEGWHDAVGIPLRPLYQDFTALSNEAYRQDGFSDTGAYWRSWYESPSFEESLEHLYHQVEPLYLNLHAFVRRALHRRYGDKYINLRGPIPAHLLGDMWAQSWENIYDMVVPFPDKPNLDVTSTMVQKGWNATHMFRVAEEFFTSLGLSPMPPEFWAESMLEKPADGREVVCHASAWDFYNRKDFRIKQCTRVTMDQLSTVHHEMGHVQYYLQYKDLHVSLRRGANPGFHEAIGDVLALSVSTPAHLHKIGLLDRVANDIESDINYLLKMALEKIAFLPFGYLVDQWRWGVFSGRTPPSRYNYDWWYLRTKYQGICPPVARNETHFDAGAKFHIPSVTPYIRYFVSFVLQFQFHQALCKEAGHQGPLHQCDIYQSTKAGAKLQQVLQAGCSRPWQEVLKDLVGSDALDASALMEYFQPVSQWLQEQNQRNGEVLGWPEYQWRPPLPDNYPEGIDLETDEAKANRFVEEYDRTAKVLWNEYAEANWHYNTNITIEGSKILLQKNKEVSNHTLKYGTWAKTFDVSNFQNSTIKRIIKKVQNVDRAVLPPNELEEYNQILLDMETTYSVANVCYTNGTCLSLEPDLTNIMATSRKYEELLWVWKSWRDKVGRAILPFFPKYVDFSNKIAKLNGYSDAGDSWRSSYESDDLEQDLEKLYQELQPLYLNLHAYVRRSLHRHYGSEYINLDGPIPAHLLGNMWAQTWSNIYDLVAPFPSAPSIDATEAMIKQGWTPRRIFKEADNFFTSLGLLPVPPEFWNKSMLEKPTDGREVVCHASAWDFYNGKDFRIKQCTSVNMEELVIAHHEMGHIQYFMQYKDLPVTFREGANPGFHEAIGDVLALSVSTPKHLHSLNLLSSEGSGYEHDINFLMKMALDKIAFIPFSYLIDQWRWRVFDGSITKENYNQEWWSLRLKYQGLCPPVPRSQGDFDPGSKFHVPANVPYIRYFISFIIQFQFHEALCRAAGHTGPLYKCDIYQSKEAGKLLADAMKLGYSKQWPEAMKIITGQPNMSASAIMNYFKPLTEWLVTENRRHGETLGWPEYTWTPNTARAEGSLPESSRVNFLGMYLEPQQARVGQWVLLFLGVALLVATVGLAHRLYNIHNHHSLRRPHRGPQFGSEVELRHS
# Protocol: Centrifuged 250-300 mg lung tissue, 3 ml extracted liquid (10 mmol/L HEPES, 125 mmol/L NaCl, pH7.4) under 12000 g for 20 minutes at 4° C. by Teflon-glass homogenizer, the cell membrane was obtained. The 3 ml homogenized liquid was added into twice, before and after centrifuged. Then the Lowry's method was adopted to determine the protein content in the membrane. Mixing 15 minute of liquid and 30 mmol/L Hip-His-Leu solution at 37° C. Fluorometric was used to determine the Hippurate content. test compounds (10^−8M, 10^−7M, 10^−6M) dissolved in PBS normal saline and used as control group. Then ACE activity inhibition rate was determined.
# β1-adrenoceptor (left atrium), sequence (P18090 whole entry): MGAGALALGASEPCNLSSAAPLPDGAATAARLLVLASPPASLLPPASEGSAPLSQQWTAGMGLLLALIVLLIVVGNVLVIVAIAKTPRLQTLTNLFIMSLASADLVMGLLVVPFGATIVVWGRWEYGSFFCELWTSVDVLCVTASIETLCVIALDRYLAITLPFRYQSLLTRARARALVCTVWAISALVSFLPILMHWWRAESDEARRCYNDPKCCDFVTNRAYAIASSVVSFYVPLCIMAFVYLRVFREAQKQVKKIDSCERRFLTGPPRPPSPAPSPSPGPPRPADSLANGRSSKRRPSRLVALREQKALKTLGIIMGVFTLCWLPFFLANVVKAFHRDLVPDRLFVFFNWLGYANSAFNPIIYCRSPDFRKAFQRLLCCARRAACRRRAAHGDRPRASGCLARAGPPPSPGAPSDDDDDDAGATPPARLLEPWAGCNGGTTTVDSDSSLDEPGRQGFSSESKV
Compound,Decrease of blood pressure [1],"β1 pA2 value, Left atrium [2]","β2 pA2 value, Trachea [3]","α1 pA2 value, Aorta [4]",β1/β2 Ratio [5],"β1 pA2 value, Right atrium [5]",inhibition at 1 µM ([6]; 10^−6M),inhibition at 0.1 µM ([6]; 10^−7M),inhibition at 0.01 µM ([6]; 10^−8M),"inhibition at 1 µM ([7]; 10^−6M, read-out: Inhibitory activity of ACE, In Rat lung)","inhibition at 0.1 µM ([7]; 10^−7M, read-out: Inhibitory activity of ACE, In Rat lung)","Inhibitory activity of ACE, In Rat lung ([7]; 10^−8M)",Kb [2]
"COc1ccccc1OCCNCC(O)COc1ccc(CO)cc1OC (centres unmarked) [compound 4, Vanydilol]",83 ± 9.1 mmHg,6.76,6.69,7.89,1.6,6.72,,,,,,,
"CCOC(=O)CCc1ccc(OCC(O)CNCCOc2ccccc2OC)cc1 (centres unmarked) [compound 3, Propiodilol]",56 ± 3.8 mmHg,6.78,6.71,,1.9,6.74,,,,,,,
"COc1cc(CO)ccc1OCC(O)CNC(C)(C)C (centres unmarked) [compound 2, Vanynolol]",72 ± 2.5 mmHg,6.84,6.61,7.23,2.3,6.67,,,,,,,
"CCOC(=O)[C@H](CCc1ccccc1)N[C@@H](C)C(=O)N1CCC[C@H]1C(=O)O [Enalapril, reference compound]",,,,,,,99%,94%,54%,98%,93%,51%,
"CC(C)NCC(O)COc1ccc(CC(N)=O)cc1 (centres unmarked) [atenolol, reference compound]",,,5.81,<5.00,,7.34,,,,,,,
1-[(4 -Propenoic acid ethyl ester)phenoxy-3-amino]-propanol [compound 1],60 ± 4.7 mmHg,6.92,6.43,,2.1,6.83,,,,,,,
"CC(C)NCC(O)COc1cccc2ccccc12 (centres unmarked) [propranolol, reference compound]",,,8.07,<5.00,,,,,,,,,
"CC(CCc1ccccc1)NCC(O)c1ccc(O)c(C(N)=O)c1 (centres unmarked) [labetalol, reference compound]",,,7.54,6.87,2.3,7.91,,,,,,,28.8 nM
